Patent US12264146B2, “Rho kinase inhibitor, method for preparing same and uses thereof” (BEIJING INCREASE INNOVATIVE DRUG CO., LTD., priority 2018, dated 2025)

Key:
endothelin (ET-1) = assay: Expression of endothelin (ET-1) in EA.Hy926 endothelial cells, detection kit; type: cell-based, human; details: EA.Hy926 cell supernatant, 48 h
Experimental: (§1) Commercially available cytokine kits were used to detect the effects of the compounds of the present application on vascular endothelium-derived contracting factor endothelin, vascular endothelium-derived relaxing factor endothelial nitric oxide synthase, nitric oxide, and prostacyclin factor. The detection was performed according to the kit instructions. When testing the effect of the compound of the present application on cytokines, a normal control group, a fasudil hydrochloride group, and high-, medium- and low-dose groups of the compounds of the present application were set up for testing. The fasudil hydrochloride used in this test example was purchased from Beijing Sihuan Pharmaceutical Co., Ltd., with the SFDA approval number of H20173349. The EA.Hy926 cells used in this test example were purchased from Suzhou Beina Chuanglian Biotechnology Co., Ltd.
EA.Hy926 cells were taken and inoculated in a 96-well plate at 5×10^4 cells/mL, 100 μL per well, and cultured adherently for 24 hours, then the test compound prepared in DMEM medium was added, and an equal volume of DMEM medium was added in the normal control group, then the cells were cultured at 37° C. for 48 hours, and then the cell supernatant was taken and placed in an EP tube, and centrifuged at 3000 r/min, 4° C. for 15 min. The resulting cell supernatant was transferred to a new EP tube, diluted twice with culture medium, and detected according to the instruction of the human endothelin detection kit (purchased from Wuhan Boster Biological Engineering Co., Ltd., batch number 59113731009), and the detection results were shown in Table 2.

prostacyclin (PGI2) = assay: Expression of prostacyclin (PGI2) in EA.Hy926 endothelial cells, ELISA kit; type: cell-based; details: EA.Hy926 cell supernatant, 24 h
Experimental: as §1
EA.Hy926 cells were taken and inoculated in a 96-well plate at 5×10^4 cells/mL, 100 μL per well, and cultured adherently for 24 hours, then the test compound prepared in DMEM medium was added, and an equal volume of DMEM medium was added in the normal control group, then the cells were cultured at 37° C. for 24 hours, and then the cell supernatant was taken and placed in an EP tube, and centrifuged for 15 min at 3000 r/min and 15° C. The resulting supernatant was transferred to a new EP tube, and then the detection was performed according to the instruction of ELISA kit (purchased from Wuhan Elabscience Biotechnology Co., Ltd., Cat. No. E-EL-0022c), and the detection results were shown in Table 3.

[1] = system: subarachnoid hemorrhage in rats; assay: Rat subarachnoid hemorrhage (SAH) model by intravascular puncture, Sugawara bleeding score; type: in vivo; set-up: dose or concentration left out as unconfirmed; details: tail vein injection, 2 administrations 4 h apart, scored 24 h after first administration (Sugawara)
Experimental: Rat subarachnoid hemorrhage (SAH) model was built by intravascular puncture. After being weighed, the rats were anesthetized with sodium pentobarbital (50 mg/kg) or chloral hydrate (300 mg/kg) by intraperitoneal injection, then fixed on their back and maintained the animal's body temperature at about 37° C. The rats' neck skin was shaved for surgery, a median incision was made on the neck, and muscle and fascia were separated along the inner edge of stemocleidomastoid muscle to expose the main and bifurcation of right common carotid artery, and expose the external and internal carotid arteries.
The bifurcation of internal carotid artery was gently clamped with ophthalmic forceps, the bifurcation of the internal carotid artery and the external carotid artery was pierced with a 6-gauge syringe needle, the ophthalmic forceps holding the bifurcation of internal carotid artery was slightly loosen, and No. 3 fishing thread was used to perform a puncture at the bleeding point, the ophthalmic forceps on the internal carotid artery was loosen, and the fishing thread was inserted into skull. […] After staying for 15 seconds, the thread for puncture was completely removed, and the skin was sutured after compression to stop the bleeding. 1.6 million units of penicillin potassium (400,000 units/ml, 0.2 ml/rat) was intramuscularly injected to avoid wound infection. For the sham operation group, the thread for puncture was removed when resistance was felt without piercing the bifurcation of the anterior cerebral artery and the middle cerebral artery, while the remaining operation steps were the same as the model group. After the operation, the rats were transferred to a thermal insulation blanket, then transferred to a squirrel cage when they were basically awake, and kept normally.
In this test experimental, 32 groups were set, i.e., Groups 1 to 32, in which Group 1 was a normal control group (healthy rats), Group 2 was a sham operation control group (not modeling by puncture), Group 3 was a model control group (modeling by puncture, administrated with normal saline), Group 4 was a positive control group (modeling by puncture, administrated with fasudil hydrochloride injection), and Groups 5 to 32 were test groups of the compounds of the present application (modeling by puncture, respectively administrated with the compounds of the present application); and there were 8 animals (purchased from SPF (Beijing) Biotechnology Co., Ltd., the certificate number was SYXK (Beijing) 2016-0002) in each group, half of them were female and half of them were male. The animals were subjected to fasting for 12 to 18 hours without prohibition of drinking water before modeling. […] The rats were euthanized 24 h after the first administration, and the brains were taken. According to Sugawara's method (Reference: Sugawara T, Ayer R, Jadhav V, et al. A new grading system evaluating bleeding scale in filament perforation subarachnoid hemorrhage rat model. J Neurosci Methods. 2008, 167(2):327-34), the subarachnoid hemorrhage amounts were scored, and the scoring results were as follows: […]

CCCC[C@@H]1CNCCCN1S(=O)(=O)c1cccc2c(O)nccc12 [Compound R-YK1611, (R)-5-((2-butyl-1,4-diazacycloheptan-1-yl)sulfonyl)isoquinolin-1-ol]
expression of endothelin in endothelial cells: Detection result of test compound at low dose (0.4 μM) (endothelin (ET-1)): 238.20 ± 2.28 pg/mL
expression of endothelin in endothelial cells: Detection result of test compound at medium dose (2 μM) (endothelin (ET-1)): 249.34 ± 7.96 pg/mL
expression of endothelin in endothelial cells: Detection result of test compound at high dose (10 μM) (endothelin (ET-1)): 235.68 ± 3.34 pg/mL
expression of prostacyclin in endothelial cells: Detection result of test compound at low dose (0.4 μM) (prostacyclin (PGI2)): 232.61 ± 9.70 pg/mL
expression of prostacyclin in endothelial cells: Detection result of test compound at medium dose (2 μM) (prostacyclin (PGI2)): 229.98 ± 11.41 pg/mL
expression of prostacyclin in endothelial cells: Detection result of test compound at high dose (10 μM) (prostacyclin (PGI2)): 249.23 ± 0.75 pg/mL
Cerebral hemorrhage volume score (x ± s) [1]: 12.41 ± 2.03

C[C@@H]1CNCCCN1S(=O)(=O)c1cccc2c(O)ncc(Cl)c12 [Compound R-YK1606, (R)-4-chloro-5-((2-methyl-1,4-diazacycloheptan-1-yl)sulfonyl)isoquinolin-1-ol]
expression of endothelin in endothelial cells: Detection result of test compound at low dose (0.4 μM) (endothelin (ET-1)): 231.75 ± 32.51 pg/mL
expression of endothelin in endothelial cells: Detection result of test compound at medium dose (2 μM) (endothelin (ET-1)): 242.62 ± 19.81 pg/mL
expression of endothelin in endothelial cells: Detection result of test compound at high dose (10 μM) (endothelin (ET-1)): 231.03 ± 1.24 pg/mL
expression of prostacyclin in endothelial cells: Detection result of test compound at low dose (0.4 μM) (prostacyclin (PGI2)): 292.24 ± 2.59 pg/mL
expression of prostacyclin in endothelial cells: Detection result of test compound at medium dose (2 μM) (prostacyclin (PGI2)): 278.32 ± 46.42 pg/mL
expression of prostacyclin in endothelial cells: Detection result of test compound at high dose (10 μM) (prostacyclin (PGI2)): 258.58 ± 7.57 pg/mL
Cerebral hemorrhage volume score (x ± s) [1]: 12.69 ± 2.01

COc1ncc(C2CC2)c2c(S(=O)(=O)N3CCCNC[C@H]3C)cccc12 [Compound R-YK1600-2, (R)-4-cyclopropyl-1-methoxy-5-((2-methyl-1,4-diazacycloheptan-1-yl)sulfonyl)isoquinoline]
expression of endothelin in endothelial cells: Detection result of test compound at low dose (0.4 μM) (endothelin (ET-1)): 223.55 ± 0.12 pg/mL
expression of endothelin in endothelial cells: Detection result of test compound at medium dose (2 μM) (endothelin (ET-1)): 225.98 ± 11.41 pg/mL
expression of endothelin in endothelial cells: Detection result of test compound at high dose (10 μM) (endothelin (ET-1)): 229.23 ± 0.75 pg/mL
expression of prostacyclin in endothelial cells: Detection result of test compound at low dose (0.4 μM) (prostacyclin (PGI2)): 241.55 ± 0.12 pg/mL
expression of prostacyclin in endothelial cells: Detection result of test compound at medium dose (2 μM) (prostacyclin (PGI2)): 245.98 ± 11.41 pg/mL
expression of prostacyclin in endothelial cells: Detection result of test compound at high dose (10 μM) (prostacyclin (PGI2)): 249.23 ± 0.75 pg/mL
Cerebral hemorrhage volume score (x ± s) [1]: 13.59 ± 2.67

C[C@@H]1CNCCCN1S(=O)(=O)c1cccc2c(O)ncc(C3CC3)c12 [Compound R-YK1600-1, (R)-4-cyclopropyl-5-((2-methyl-1,4-diazacycloheptan-1-yl)sulfonyl)isoquinolin-1-ol]
expression of endothelin in endothelial cells: Detection result of test compound at low dose (0.4 μM) (endothelin (ET-1)): 228.20 ± 2.28 pg/mL
expression of endothelin in endothelial cells: Detection result of test compound at medium dose (2 μM) (endothelin (ET-1)): 229.34 ± 7.96 pg/mL
expression of endothelin in endothelial cells: Detection result of test compound at high dose (10 μM) (endothelin (ET-1)): 227.68 ± 3.34 pg/mL
expression of prostacyclin in endothelial cells: Detection result of test compound at low dose (0.4 μM) (prostacyclin (PGI2)): 243.20 ± 2.28 pg/mL
expression of prostacyclin in endothelial cells: Detection result of test compound at medium dose (2 μM) (prostacyclin (PGI2)): 242.34 ± 7.96 pg/mL
expression of prostacyclin in endothelial cells: Detection result of test compound at high dose (10 μM) (prostacyclin (PGI2)): 247.68 ± 3.34 pg/mL
Cerebral hemorrhage volume score (x ± s) [1]: 13.37 ± 2.56
